What was measured:
Test in all cases: relative viability (nuclei count vs DMSO), 5 days (fraction); higher = more cells survive
[1] = compound: CC1=CC(=CC=C1)NC2=NC(=CS2)C3=CC=NC=C3 + O=C(CCCCCCC(=O)Nc1ccccc1)NO [Vorinostat] (partner 1 µM)
Outline: (§1)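 Relative viability equals treated-well nuclei counts divided by vehicle-well nuclei counts. Counts came from 4× images of lung cancer cell lines grown in 1536-well plates for 5 days after pin-tool dosing on the day after seeding. Dosing used one drug alone or a fixed anchor-drug dose plus five library-drug doses (not always all listed) in √10 steps, and values are medians of duplicate plates.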

Masitinib + Phenformin = compound: Cc1ccc(NC(=O)c2ccc(CN3CCN(C)CC3)cc2)cc1Nc1nc(-c2cccnc2)cs1 [Masitinib] + N=C(N)NC(=N)NCCc1ccccc1 [Phenformin] (partner 250 µM)
Outline: as §1

Masitinib + AZD7762 = compound: Cc1ccc(NC(=O)c2ccc(CN3CCN(C)CC3)cc2)cc1Nc1nc(-c2cccnc2)cs1 [Masitinib] + NC(=O)Nc1cc(-c2cccc(F)c2)sc1C(=O)N[C@H]1CCCNC1 [AZD7762] (partner 0.2 µM)
Outline: as §1

[2] = compound: CC1=CC(=CC=C1)NC2=NC(=CS2)C3=CC=NC=C3 + CC(C)C[C@H](NC(=O)[C@H](Cc1ccccc1)NC(=O)c1cnccn1)B(O)O [Bortezomib] (partner 0.002 µM)
Outline: as §1

Cell Line | relative viability ([1]; first compound 0.08 µM) | relative viability ([1]; first compound 0.253 µM) | relative viability ([1]; first compound 0.8 µM) | relative viability ([1]; first compound 2.53 µM) | relative viability ([1]; first compound 8 µM) | relative viability (Masitinib + Phenformin; first compound 0.01 µM) | relative viability (Masitinib + Phenformin; first compound 0.03162 µM) | relative viability (Masitinib + Phenformin; first compound 0.1 µM) | relative viability (Masitinib + Phenformin; first compound 0.3162 µM) | relative viability (Masitinib + Phenformin; first compound 1 µM) | relative viability (Masitinib + AZD7762; first compound 0.01 µM) | relative viability (Masitinib + AZD7762; first compound 0.03162 µM) | relative viability (Masitinib + AZD7762; first compound 0.1 µM) | relative viability (Masitinib + AZD7762; first compound 0.3162 µM) | relative viability (Masitinib + AZD7762; first compound 1 µM) | relative viability ([2]; first compound 0.08 µM) | relative viability ([2]; first compound 0.253 µM) | relative viability ([2]; first compound 0.8 µM) | relative viability ([2]; first compound 2.53 µM) | relative viability ([2]; first compound 8 µM)
HCC-44 | 1.02 | 0.926 | 0.826 | 0.797 | 0.825 | 0.236 | 0.188 | 0.213 | 0.323 | 0.185 | 0.834 | 0.99 | 1.02 | 0.958 | 1.04 | 0.75 | 0.702 | 0.71 | 0.707 | 0.809
HCC-827 | 0.778 | 0.772 | 0.819 | 0.651 | 0.653 | 0.395 | 0.433 | 0.382 | 0.411 | 0.318 | 0.224 | 0.198 | 0.192 | 0.165 | 0.213 | 1.05 | 0.903 | 0.946 | 0.974 | 0.882
NCI-H1623 |  |  |  |  |  | 0.509 | 0.494 | 0.564 | 0.52 | 0.533 |  |  |  |  |  |  |  |  |  | 
NCI-H2405 | 0.874 | 0.613 | 0.892 |  | 0.839 | 0.379 | 0.366 | 0.399 | 0.459 | 0.247 | 0.741 | 0.778 | 0.738 | 0.692 | 0.634 | 0.929 | 0.87 | 0.87 | 0.774 | 0.903
PC-3 [JPC-3] | 0.579 |  | 0.811 | 0.575 | 0.803 | 0.47 | 0.429 | 0.47 | 0.46 | 0.37 | 0.785 | 0.873 | 0.837 | 0.645 | 0.642 | 0.743 | 0.821 | 0.577 | 0.636 | 0.361
NCI-H1666 | 0.622 | 0.821 | 0.702 | 0.79 | 0.735 |  | 0.527 | 0.637 | 0.487 | 0.56 | 0.763 | 0.743 | 0.806 | 0.527 | 0.816 | 0.503 | 0.553 | 0.41 | 0.388 | 0.409
HARA | 0.492 | 0.523 | 0.501 | 0.391 | 0.302 |  | 0.417 | 0.399 | 0.398 | 0.424 | 0.444 | 0.267 | 0.216 |  | 0.143 | 1.09 | 1.16 | 1.1 | 1.03 | 0.936
NCI-H1651 | 0.562 | 0.547 | 0.569 | 0.464 | 0.596 | 0.341 | 0.29 | 0.337 | 0.375 | 0.31 | 0.49 | 0.523 | 0.485 | 0.475 | 0.471 | 0.939 | 0.923 | 0.933 | 0.822 | 0.987
NCI-H1395 | 0.618 |  | 0.804 | 0.478 | 0.537 | 0.42 | 0.442 | 0.473 | 0.47 | 0.424 | 0.379 | 0.416 | 0.392 | 0.405 | 0.378 |  |  |  |  | 
LU99A | 0.445 | 0.601 | 0.582 | 0.443 | 0.479 | 0.868 | 0.807 | 0.859 | 0.856 | 0.703 | 0.462 | 0.293 | 0.312 | 0.319 | 0.273 |  | 1.09 | 1.15 | 1.06 | 1.05
LXF-289 | 0.746 | 0.808 | 0.801 | 0.679 | 0.718 | 0.461 | 0.514 | 0.477 | 0.522 | 0.451 | 0.996 | 1.18 | 1.18 | 1.14 | 1.02 | 0.952 | 0.959 | 0.988 | 0.978 | 0.823
NCI-H1437 | 0.722 | 0.732 | 0.611 | 0.718 | 0.362 | 0.249 | 0.297 | 0.25 | 0.294 | 0.329 | 1.09 | 1.12 | 1.22 | 1.07 | 1.06 | 0.473 | 0.523 | 0.566 | 0.437 | 0.355
HCC-78 | 0.513 | 0.468 | 0.477 | 0.41 | 0.481 | 0.724 | 0.638 | 0.752 | 0.663 | 0.718 | 0.509 | 0.524 | 0.71 | 0.454 | 0.572 | 0.409 | 0.473 | 0.469 | 0.414 | 0.274
NCI-H1650 | 0.587 | 0.533 | 0.489 | 0.51 | 0.404 | 0.419 | 0.334 | 0.447 | 0.371 | 0.362 |  |  |  |  |  | 0.194 | 0.193 | 0.213 | 0.213 | 0.191
HCC-15 | 0.678 | 0.645 | 0.773 | 0.67 | 0.636 | 0.448 | 0.453 | 0.497 | 0.459 | 0.405 | 0.794 | 1.04 | 1.02 | 0.422 | 1.24 | 0.963 | 1.03 | 0.973 | 1.02 | 0.753
EKVX | 0.31 | 0.585 | 0.507 | 0.488 | 0.502 |  | 0.213 | 0.235 | 0.214 | 0.199 | 0.783 | 0.824 | 0.71 |  | 0.637 | 1.01 | 0.994 | 0.747 | 0.957 | 0.696
NCI-H2126 | 0.579 | 0.717 | 0.711 | 0.735 | 0.74 | 0.515 | 0.548 | 0.552 | 0.507 | 0.503 | 0.884 | 1.07 | 0.97 | 0.973 | 1.11 | 1.06 | 1.04 | 1.16 | 0.989 | 0.91
LK-2 | 0.356 | 0.307 | 0.527 | 0.402 | 1 | 0.481 | 0.347 | 0.423 | 0.535 | 0.43 | 0.4 | 0.346 | 0.692 | 0.525 | 0.302 |  |  |  |  | 
